From patent US9055745B2, “Compositions for internal and external insecticides, ovicides, repellents and wound healing” (Natureza, Inc., priority 2011, dated 2015) come the findings set out here.

One data set deals with ctenocephalides felis. The data set is described as follows: Efficacy of fatty acid methyl esters in water or acetone on glass paper (Table 14). The class given is in vivo. From the text:
Further results are shown below in Table 14, regarding the efficacy of various fatty acid methyl and ester esters against fleas (ctenocephalides felis).

Another data set relates to fleas. The data set is described as follows: Flea contact test using impregnated glass paper (Example XIII, FIG. 15, Table 13). The conditions noted are these: for Mortality of the fleas: 200 μL on glass filter paper, after twenty-four hours, 12 fleas. In kind it is in vivo. The protocol: The fatty acids used in the test were mono laurin and lauric acid, while the fatty acid esters used in the test were methyl laurate, i.e. lauric acid methyl ester and ethyl dodecanoate, i.e. lauric acid ethyl ester. Each of these compounds were dissolved in ethanol in concentrations of 0.1% and 1%, and then 200 μL (micro liters) of each solution was placed on glass filter paper (15×150 mm). After the ethanol had evaporated a paper for each concentration of each compound was put into a test tube, and 12 fleas were added per test tube and the top of the test tube was covered. Whether the fleas were alive or dead at was measured after 2 and twenty-four hours. […] Further results are shown below in Table 13.

Regarding `CCCCCCCCC(=O)OC` [Methyl nonanoate], in the data set on ctenocephalides felis (0.1% in Acetone), the “5 Hours Alive” value is 14, the “5 Hours Dead” value stood at 0, the “2 hours Alive” value is reported as 14 and the “2 hours Dead” value amounted to 0. In the data set on ctenocephalides felis (0.1% in Acetone), the “20 hours Alive” value worked out at 14 and the “20 hours Dead” value worked out at 0. For the same compound, in the data set on ctenocephalides felis (0.1% in Water), the “5 Hours Alive” value is listed as 12, the “5 Hours Dead” value is 0, the “2 hours Alive” value is 12 and the “2 hours Dead” value is listed as 0. Also, in the data set on ctenocephalides felis (0.1% in Water), the “20 hours Alive” value worked out at 12 and the “20 hours Dead” value is 0. In the data set on ctenocephalides felis (1% in Acetone), the “5 Hours Alive” value is listed as 9, the “5 Hours Dead” value is listed as 0, the “2 hours Alive” value is recorded as 9 and the “2 hours Dead” value is 0. In addition, in the data set with ctenocephalides felis (1% in Acetone), the “20 hours Alive” value is 9 and the “20 hours Dead” value worked out at 0. Besides, in the data set with ctenocephalides felis (1% in Water), the “5 Hours Alive” value amounted to 14, the “5 Hours Dead” value was 0, the “2 hours Alive” value was determined as 14 and the “2 hours Dead” value was 0. Moreover, in the data set with ctenocephalides felis (1% in Water), the “20 hours Alive” value was 14 and the “20 hours Dead” value amounted to 0.

For `CCCCCCCCCCCC(=O)OC` [Methyl laurate, lauric acid methyl ester], in the data set with ctenocephalides felis (0.1% in Acetone), the “5 Hours Alive” value is 15, the “5 Hours Dead” value amounted to 0, the “2 hours Alive” value was 15 and the “2 hours Dead” value stood at 0. In the data set with ctenocephalides felis (0.1% in Acetone), the “20 hours Alive” value worked out at 15 and the “20 hours Dead” value is reported as 0. In the data set on ctenocephalides felis (0.1% in Water), the “5 Hours Alive” value worked out at 15, the “5 Hours Dead” value worked out at 0, the “2 hours Alive” value came to 15 and the “2 hours Dead” value was 0. In the data set on ctenocephalides felis (0.1% in Water), the “20 hours Alive” value was 15 and the “20 hours Dead” value is recorded as 0. Besides, in the data set on ctenocephalides felis (1% in Acetone), the “5 Hours Alive” value was found to be 0, the “5 Hours Dead” value came to 13, the “2 hours Alive” value was 0 and the “2 hours Dead” value was determined as 13. Besides, in the data set with ctenocephalides felis (1% in Acetone), the “20 hours Alive” value is given as 0 and the “20 hours Dead” value turned out to be 13. For the same compound, in the data set with ctenocephalides felis (1% in Water), the “5 Hours Alive” value is given as 11, the “5 Hours Dead” value came to 0, the “2 hours Alive” value came to 11 and the “2 hours Dead” value was found to be 0. Moreover, in the data set with ctenocephalides felis (1% in Water), the “20 hours Alive” value came out at 11 and the “20 hours Dead” value was determined as 0. For the same compound, in the data set on fleas (0.1% in ethanol), the “Mortality of the fleas” value came to 100%. For the same compound, in the data set with fleas (1% in ethanol), the “Mortality of the fleas” value was determined as 100%.

Consider `CCCCCCCCCCCC(=O)OCC` [lauric acid ethyl ester], for which the “Mortality of the fleas” value with fleas (0.1% in ethanol) and in the data set on fleas (1% in ethanol) was 100% in each case.

As for `CCCCCCCCCC(=O)OC` [Methyl decanoate], in the data set on ctenocephalides felis (0.1% in Acetone), the “5 Hours Alive” value is 12, the “5 Hours Dead” value came to 0, the “2 hours Alive” value turned out to be 12 and the “2 hours Dead” value is reported as 0. In addition, in the data set on ctenocephalides felis (0.1% in Acetone), the “20 hours Alive” value came out at 12 and the “20 hours Dead” value is listed as 0. Moreover, in the data set with ctenocephalides felis (0.1% in Water), the “5 Hours Alive” value was determined as 11, the “5 Hours Dead” value was 0, the “2 hours Alive” value is 11 and the “2 hours Dead” value came out at 0. Besides, in the data set on ctenocephalides felis (0.1% in Water), the “20 hours Alive” value is 11 and the “20 hours Dead” value is given as 0. Further, in the data set with ctenocephalides felis (1% in Acetone), the “5 Hours Alive” value came out at 14, the “5 Hours Dead” value is 0, the “2 hours Alive” value is on record as 14 and the “2 hours Dead” value came to 0. In addition, in the data set with ctenocephalides felis (1% in Acetone), the “20 hours Alive” value amounted to 14 and the “20 hours Dead” value is listed as 0. Also, in the data set with ctenocephalides felis (1% in Water), the “5 Hours Alive” value was 19, the “5 Hours Dead” value is recorded as 0, the “2 hours Alive” value came out at 19 and the “2 hours Dead” value came to 0. For the same compound, in the data set with ctenocephalides felis (1% in Water), the “20 hours Alive” value came out at 19 and the “20 hours Dead” value was 0.

In the case of `CO[C@H]1CO[C@H]2[C@@H]1OC[C@H]2OC` [ISDE - 1% (benign base), isosorbide dimethyl ether], the “% Killed” value in the data set with fleas (after 24 hours) is recorded as 0%. In the data set on fleas (number of fleas, 2 hours), the “2 hours Alive” value was determined as 12 and the “2 hours Dead” value was found to be 0. Further, in the data set on fleas (number of fleas, 24 hours), the “24 hours Alive” value was 12 and the “24 hours Dead” value worked out at 0.

Consider `CCCCCCCC(=O)OC` [Methyl octanoate], for which, in the data set with ctenocephalides felis (0.1% in Acetone), the “5 Hours Alive” value was determined as 16, the “5 Hours Dead” value worked out at 0, the “2 hours Alive” value was determined as 16 and the “2 hours Dead” value is recorded as 0. Also, in the data set on ctenocephalides felis (0.1% in Acetone), the “20 hours Alive” value came out at 16 and the “20 hours Dead” value is reported as 0. Further, in the data set on ctenocephalides felis (0.1% in Water), the “5 Hours Alive” value is 10, the “5 Hours Dead” value came to 0, the “2 hours Alive” value is recorded as 10 and the “2 hours Dead” value is given as 0. Further, in the data set with ctenocephalides felis (0.1% in Water), the “20 hours Alive” value is given as 10 and the “20 hours Dead” value is reported as 0. Further, in the data set on ctenocephalides felis (1% in Acetone), the “5 Hours Alive” value is on record as 8, the “5 Hours Dead” value was 0, the “2 hours Alive” value is on record as 8 and the “2 hours Dead” value is 0. Moreover, in the data set on ctenocephalides felis (1% in Acetone), the “20 hours Alive” value is recorded as 8 and the “20 hours Dead” value is listed as 0. In addition, in the data set on ctenocephalides felis (1% in Water), the “5 Hours Alive” value is recorded as 5, the “5 Hours Dead” value turned out to be 0, the “2 hours Alive” value amounted to 5 and the “2 hours Dead” value came out at 0. In the data set with ctenocephalides felis (1% in Water), the “20 hours Alive” value is listed as 5 and the “20 hours Dead” value was 0.
